Patent US9505796B2, “Phosphorylated A2A receptor agonists” (Crozet Medical GMBH, priority 2006, dated 2016)

Tests used:
[1] = test system: VCAM-1 mRNA expression in aortic ECs; experiment: VCAM-1 mRNA expression in cultured aortic ECs (PCR); assay type: cell-based, mouse; conditions: CD73−/− ECs, ATL-146e 10 μM for 6 hours
Procedure: (§1) Mouse aortal ECs were cultured as described. Six mL of type I rat tail collagen (4 mg/mL) combined with 0.1 M NaOH, 3.5 mL 3×DMEM and 5.25 mL of 1×DMEM supplemented with 30% FCS was aliquoted into a 24 well plate, allowed to gel at 37° C. for 1 hour and equilibrated overnight in complete EC medium: RPMI-1640 supplemented with 20% heat inactivated FCS, 2-mercaptoethanol (4 L/L), gentamicin (10 g/mL) and EC growth supplement (50 g/mL, BD Biosciences). Aortas from CD73^−/− or WT mice cut into circular rings were opened longitudinally and placed luminal side down onto the collagen gel. After 2 days, complete medium was added and changed every third day. After 10 days, aortic segments were removed and the collagen gel digested with 0.3% collagenase H. Then, ECs were grown in complete medium and used between passages 2-8. Some ECs were treated with ATL-146e (10 μM) for 6 hours. Mono Mac 6 cells were maintained as described.
RNA was prepared using the RNAqzeous-Micro isolation kit (Ambion) and RNeasy Mini kit (Qiagen) and reverse-transcribed into cDNA using Mo-MLV RT (Invitrogen).

[2] = test system: surface protein expression of VCAM-1 in aortic ECs; experiment: VCAM-1 surface protein expression in aortic ECs (flow cytometry); assay type: cell-based, mouse; conditions: ATL-146e 10 μM for 6 hours
Procedure: as §1, with “Mono Mac 6 cells were maintained as described.” left out
For immunofluorescence, confluent ECs on glass chamber slides were fixed in methanol, permeabilized with 0.5% triton and reacted with p65 (C-20, Santa Cruz) or isotype control and FITC-conjugated secondary Ab (Boehringer Mannheim). […] After incubation for 30 min at RT, primary Ab binding was detected using a FITCconjugated secondary Ab (Boehringer Mannheim) and analyzed in a FACSCalibur (BD Biosciences). Specific mean fluorescence intensity was determined by subtracting isotype control staining.

[3] = test system: arrest of Mono Mac 6 cells on aortic ECs; experiment: Adhesion assay: monocyte arrest on ECs under laminar flow; assay type: cell-based, mouse; conditions: ATL-146e 10 μM for 6 hours
Procedure: as §1
Laminar flow assays were performed as described. ECs were perfused with Mono Mac 6 cells (0.5×10^6/mL) pre-treated with or without anti-VLA-4 (10 g/mL, Immunotech) at 1.5 dyn/cm^2. The numbers of firmly arrested and rolling cells were quantified after 4 min in multiple (>10) fields by analyzing images recorded by video microscopy, and expressed as cells/mm^2

[4] = test system: wire-injured carotid arteries of WT and CD73−/− mice; experiment: Mouse model of carotid artery injury, neointima formation; assay type: in vivo; conditions: 4 weeks after injury, continuous infusion 0.004 μg/kg per minute
Source text: Male, 6-12 week old CD73^−/− or WT NMRI mice (n=6-8) were left untreated or fed an atherogenic diet containing 21% fat for one week before and up to 4 weeks after injury. Transluminal carotid artery injury was induced by 4 rotational passes of a 0.36-mm guide-wire. After 6 days of diet and one day before carotid injury, some mice (n=10 per group) were anesthetized and underwent implantation of a primed, 28-day osmotic pump (model 2004, Alza Corp) placed subcutaneously via transverse midscapular incision for continuous treatment with ATL (0.004 μg/kg per minute; 200 μL of 1% dimethyl sulfoxide in saline; kind gift from G. W. Sullivan and J. Linden, University of Virginia). Arteries were harvested by in situ perfusion fixation with 4% paraformaldehyde and embedded in paraffin. […]
Neointimal and medial areas were quantified in serial 5 μm sections of common carotid arteries within a standardized distance from the bifurcation (50-250 μm) stained with Movat pentachrome Areas within the external elastic lamina (EEL), internal elastic lamina (TEL) and lumen (L) were determined by computer-assisted planimetry (Diskus software, Hilgers). […] The relative content of macrophages in the neointima was determined in serial sections of the LCA within 300 μm from the bifurcation (6 per mouse, each 50 μm apart). […] Images were recorded using a Leica DMLB microscope and CCD camera. […]

## CCNC(=O)[C@H]1O[C@@H](n2cnc3c(N)nc(C#CCC4CCC(C(=O)OC)CC4)nc32)[C@H](O)[C@@H]1O (stereo partly shown) [ATL-146e]
[1]
  VCAM-1 mRNA expression: reduced the elevated VCAM-1 mRNA expression
[2]; CD73−/− ECs
  surface protein expression of VCAM-1: reversed the increased surface protein expression of VCAM-1
[2]; WT ECs
  surface protein expression of VCAM-1: slightly diminished its expression
[3]; CD73−/− ECs
  monocyte arrest: inhibition of the monocyte arrest
[3]; WT ECs
  monocyte arrest: not affected
[4]; CD73−/− mice, vs control CD73−/− mice
  neointimal hyperplasia in carotid arteries: completely prevented neointimal hyperplasia
[4]; WT mice, vs control WT mice
  neointima formation in carotid arteries: significantly inhibited neointima formation
